Measurements as given in US20070264247A1, “Use of Human Lysozyme in Preparation of Medicine for Treating Acne” (priority 2004, published 2007).
In brackets after ≈: the same amount, converted by molar mass. Like-named read-outs stand apart in the source and are kept apart here.

Legend:
Assay in all cases: MIC by double agar dilution method, clinical isolates
Assay type in all cases: cell-based
[1] = system: Staphylococcu epidermidis
Method: (§1) Strain: Pathogenic bacteria isolated from clinical laboratory collected from Sichuan, Beijing, 2002.4˜2003.9, assessed using the method of API in our laboratory.
(§2) Test the minimum inhibitory concentration (MIC) of the tested drug against the strains using the double agar dilution method. The tested drug was dissolved in sterile purified water and diluted properly. The drug-containing petri dishes were prepared by spiking 1 ml drug conclusion with melted 9 ml Tris —HCl agarose solid medium, using agar twofold dilution method and obtained the concentration of 4, 2, 1, 0.5, 0.25, 0.125, 0.06, 0.03 . . . 0.001 mg/ml. The strain solution of 10^5 CFU/ml was inoculated on the petri dishes using the multipoint inoculator, cultured for 8-10 h at 37° C., covered the petri dishes using melted 6 ml M-H Medium (50° C.) respectively, cultured for 10 h at 37° C. The minimal concentration of the drug-containing petri dishes which had no bacterium growth was the minimal inhibitory concentration (MIC).

Staphylococcus aureus = system: Staphylococcus aureus
Method: as §1, §2

Escherichia coli = system: Escherichia coli
Method: as §1, §2

Propionibacterium = system: Propionibacterium
Method: as §1, §2

Serratia marcescens = system: Serratia marcescens
Method: as §1, §2

Klebsiella pneumoniae = system: Klebsiella pneumoniae
Method: as §1, §2

[2] = Staphylococcu epidermidis MRSE02-3
[3] = Staphylococcu epidermidis MRSE02-4
[4] = Staphylococcu epidermidis MRSE02-5
[5] = Staphylococcu epidermidis MRSE02-6
[6] = Staphylococcu epidermidis MRSE02-10
[7] = Staphylococcu epidermidis MRSE02-11
[8] = Staphylococcu epidermidis MRSE02-12
[9] = Staphylococcu epidermidis MRSE02-15
[10] = Staphylococcu epidermidis MRSE02-17
[11] = Staphylococcu epidermidis MRSE02-18
[12] = Staphylococcu epidermidis MRSE02-20
[13] = Staphylococcu epidermidis MRSE02-20-1
[14] = Staphylococcu epidermidis MRSE02-20-2
[15] = Staphylococcu epidermidis MRSE02-20-3
[16] = Staphylococcu epidermidis MRSE02-20-4
[17] = Staphylococcu epidermidis MRSE02-20-5
[18] = Staphylococcu epidermidis MRSE02-20-6
[19] = Staphylococcu epidermidis MRSE02-20-7
[20] = Staphylococcu epidermidis MRSE02-20-8
[21] = Staphylococcu epidermidis MRSE02-20-9
[22] = Staphylococcu epidermidis MRSE02-21
[23] = Staphylococcu epidermidis MRSE02-22
[24] = Staphylococcu epidermidis MRSE02-29
[25] = Staphylococcu epidermidis MssE25
[26] = Staphylococcus aureus MRSA02-22, read-out: MIC
[27] = Staphylococcus aureus MRSA02-23
[28] = Staphylococcus aureus MRSA02-26
[29] = Staphylococcus aureus MRSA02-28
[30] = Escherichia coli 03-2-41, read-out: MIC
[31] = Escherichia coli 03-2-42, read-out: MIC
[32] = Escherichia coli 03-2-43, read-out: MIC
[33] = Escherichia coli 03-2-45, read-out: MIC
[34] = Escherichia coli 03-2-51, read-out: MIC
[35] = Escherichia coli 03-2-52, read-out: MIC
[36] = Escherichia coli 03-2-53, read-out: MIC
[37] = Escherichia coli 03-2-54, read-out: MIC
[38] = Escherichia coli 03-2-56, read-out: MIC
[39] = Escherichia coli 03-2-57, read-out: MIC
[40] = Escherichia coli 03-2-58, read-out: MIC
[41] = Serratia marcescens 2-31-8 (first line)
[42] = Serratia marcescens 2-31-8 (second line)
[43] = Serratia marcescens 2-31-8 (third line)

CC[C@H]1OC(=O)[C@H](C)[C@@H](O[C@H]2C[C@@](C)(OC)[C@@H](O)[C@H](C)O2)[C@H](C)[C@@H](O[C@@H]2O[C@H](C)C[C@H](N(C)C)[C@H]2O)[C@](C)(OC)C[C@@H](C)C(=O)[C@H](C)[C@@H](O)[C@]1(C)O [CLA, Clarithromycin]
MIC [1, 2]: > 1000 µg/mL
MIC [1, 3]: 500 µg/mL (≈ 668 µM)
MIC [1, 4]: < 1 µg/mL
MIC [1, 5]: < 1 µg/mL
MIC [1, 6]: 1000 µg/mL (≈ 1340 µM)
MIC [1, 7]: < 1 µg/mL
MIC [1, 8]: 8 µg/mL (≈ 10.7 µM)
MIC [1, 9]: 1000 µg/mL (≈ 1340 µM)
MIC [1, 10]: 250 µg/mL (≈ 334 µM)
MIC [1, 11]: < 1 µg/mL
MIC [1, 12]: > 1000 µg/mL
MIC [1, 13]: < 1 µg/mL
MIC [1, 14]: > 1000 µg/mL
MIC [1, 15]: > 1000 µg/mL
MIC [1, 16]: > 1000 µg/mL
MIC [1, 17]: > 1000 µg/mL
MIC [1, 18]: > 1000 µg/mL
MIC [1, 19]: 1000 µg/mL (≈ 1340 µM)
MIC [1, 20]: < 1 µg/mL
MIC [1, 21]: < 1 µg/mL
MIC [1, 22]: < 1 µg/mL
MIC [1, 23]: < 1 µg/mL
MIC [1, 24]: 30 µg/mL (≈ 40.1 µM)
MIC [1, 25]: < 1 µg/mL
MIC (Staphylococcus aureus; Staphylococcus aureus 02-19-5): >1000 µg/mL
MIC (Staphylococcus aureus; [26]): > 1000 µg/mL
MIC (Staphylococcus aureus; [27]): >1000 µg/mL
MIC (Staphylococcus aureus; [28]): >1000 µg/mL
MIC (Staphylococcus aureus; [29]): >1000 µg/mL
MIC (Escherichia coli): 125 µg/mL (≈ 167 µM)
MIC (Escherichia coli; [30]): > 1000 µg/mL
MIC (Escherichia coli; [31]): 63 µg/mL (≈ 84.2 µM)
MIC (Escherichia coli; [32]): 16 µg/mL (≈ 21.4 µM)
MIC (Escherichia coli; [33]): 250 µg/mL (≈ 334 µM)
MIC (Escherichia coli; [34]): > 1000 µg/mL
MIC (Escherichia coli; [35]): > 1000 µg/mL
MIC (Escherichia coli; [36]): 30 µg/mL (≈ 40.1 µM)
MIC (Escherichia coli; [37]): > 1000 µg/mL
MIC (Escherichia coli; [38]): 16 µg/mL (≈ 21.4 µM)
MIC (Escherichia coli; [39]): 32 µg/mL (≈ 42.8 µM)
MIC (Escherichia coli; [40]): > 1000 µg/mL
MIC (Propionibacterium; Propionibacterium 02-7-4): 2 µg/mL (≈ 2.67 µM)
MIC (Propionibacterium; Propionibacterium 02-7-5): < 1 µg/mL
MIC (Propionibacterium; Propionibacterium 02-7-6): 8 µg/mL (≈ 10.7 µM)
MIC (Propionibacterium; Propionibacterium 02-7-7): 32 µg/mL (≈ 42.8 µM)
MIC (Propionibacterium; Propionibacterium 02-7-9): 8 µg/mL (≈ 10.7 µM)
MIC (Propionibacterium; Propionibacterium 03-2-22): 1000 µg/mL (≈ 1340 µM)
MIC (Propionibacterium; Propionibacterium 03-2-30): > 1000 µg/mL
MIC (Propionibacterium; Propionibacterium 03-2-32): 8 µg/mL (≈ 10.7 µM)
MIC (Propionibacterium; Propionibacterium 03-2-33): > 1000 µg/mL
MIC (Propionibacterium; Propionibacterium 03-2-36): 250 µg/mL (≈ 334 µM)
MIC (Propionibacterium; Propionibacterium 03-2-37): > 1000 µg/mL
MIC (Propionibacterium; Propionibacterium 03-2-39): 500 µg/mL (≈ 668 µM)
MIC (Serratia marcescens; [41]): 8 µg/mL (≈ 10.7 µM)
MIC (Serratia marcescens; [42]): 8 µg/mL (≈ 10.7 µM)
MIC (Serratia marcescens; [43]): 16 µg/mL (≈ 21.4 µM)
MIC (Klebsiella pneumoniae; Klebsiella pneumoniae 02-6-14): 63 µg/mL (≈ 84.2 µM)
MIC (Klebsiella pneumoniae; Klebsiella pneumoniae 02-6-18): 500 µg/mL (≈ 668 µM)

CC[C@H]1OC(=O)[C@H](C)[C@@H](O[C@H]2C[C@@](C)(OC)[C@@H](O)[C@H](C)O2)[C@H](C)[C@@H](O[C@@H]2O[C@H](C)C[C@H](N(C)C)[C@H]2O)[C@](C)(O)C[C@@H](C)/C(=N\OCOCCOC)[C@H](C)[C@@H](O)[C@]1(C)O [ROX, Roxithromycin]
MIC [1, 2]: > 1000 µg/mL
MIC [1, 3]: > 1000 µg/mL
MIC [1, 4]: < 1 µg/mL
MIC [1, 5]: < 1 µg/mL
MIC [1, 6]: 1000 µg/mL (≈ 1190 µM)
MIC [1, 7]: < 1 µg/mL
MIC [1, 8]: 125 µg/mL (≈ 149 µM)
MIC [1, 9]: > 1000 µg/mL
MIC [1, 10]: > 1000 µg/mL
MIC [1, 11]: < 1 µg/mL
MIC [1, 12]: > 1000 µg/mL
MIC [1, 13]: < 1 µg/mL
MIC [1, 14]: > 1000 µg/mL
MIC [1, 15]: > 1000 µg/mL
MIC [1, 16]: > 1000 µg/mL
MIC [1, 17]: > 1000 µg/mL
MIC [1, 18]: > 1000 µg/mL
MIC [1, 19]: 1000 µg/mL (≈ 1190 µM)
MIC [1, 20]: < 1 µg/mL
MIC [1, 21]: < 1 µg/mL
MIC [1, 22]: < 1 µg/mL
MIC [1, 23]: < 1 µg/mL
MIC [1, 24]: 500 µg/mL (≈ 597 µM)
MIC [1, 25]: < 1 µg/mL
MIC (Staphylococcus aureus; Staphylococcus aureus 02-19-5): >1000 µg/mL
MIC (Staphylococcus aureus; [26]): > 1000 µg/mL
MIC (Staphylococcus aureus; [27]): >1000 µg/mL
MIC (Staphylococcus aureus; [28]): >1000 µg/mL
MIC (Staphylococcus aureus; [29]): >1000 µg/mL
MIC (Escherichia coli; [30]): > 1000 µg/mL
MIC (Escherichia coli; [31]): > 1000 µg/mL
MIC (Escherichia coli; [32]): 250 µg/mL (≈ 299 µM)
MIC (Escherichia coli; [33]): 500 µg/mL (≈ 597 µM)
MIC (Escherichia coli; [34]): > 1000 µg/mL
MIC (Escherichia coli; [35]): 250 µg/mL (≈ 299 µM)
MIC (Escherichia coli; [36]): 250 µg/mL (≈ 299 µM)
MIC (Escherichia coli; [37]): 1000 µg/mL (≈ 1190 µM)
MIC (Escherichia coli; [38]): 250 µg/mL (≈ 299 µM)
MIC (Escherichia coli; [39]): 250 µg/mL (≈ 299 µM)
MIC (Escherichia coli; [40]): 500 µg/mL (≈ 597 µM)
MIC (Escherichia coli; Escherichia coli 03-2-59, read-out: MIC): 250 µg/mL (≈ 299 µM)
MIC (Propionibacterium; Propionibacterium 02-7-4): 2 µg/mL (≈ 2.39 µM)
MIC (Propionibacterium; Propionibacterium 02-7-5): < 1 µg/mL
MIC (Propionibacterium; Propionibacterium 02-7-6): 250 µg/mL (≈ 299 µM)
MIC (Propionibacterium; Propionibacterium 02-7-7): 250 µg/mL (≈ 299 µM)
MIC (Propionibacterium; Propionibacterium 02-7-9): 16 µg/mL (≈ 19.1 µM)
MIC (Propionibacterium; Propionibacterium 03-2-22): 1000 µg/mL (≈ 1190 µM)
MIC (Propionibacterium; Propionibacterium 03-2-30): > 1000 µg/mL
MIC (Propionibacterium; Propionibacterium 03-2-32): 500 µg/mL (≈ 597 µM)
MIC (Propionibacterium; Propionibacterium 03-2-33): > 1000 µg/mL
MIC (Propionibacterium; Propionibacterium 03-2-36): 500 µg/mL (≈ 597 µM)
MIC (Propionibacterium; Propionibacterium 03-2-37): 1000 µg/mL (≈ 1190 µM)
MIC (Propionibacterium; Propionibacterium 03-2-39): 1000 µg/mL (≈ 1190 µM)
MIC (Serratia marcescens; [41]): 16 µg/mL (≈ 19.1 µM)
MIC (Serratia marcescens; [42]): 16 µg/mL (≈ 19.1 µM)
MIC (Serratia marcescens; [43]): 16 µg/mL (≈ 19.1 µM)
MIC (Klebsiella pneumoniae; Klebsiella pneumoniae 02-6-14): > 1000 µg/mL
MIC (Klebsiella pneumoniae; Klebsiella pneumoniae 02-6-18): 1000 µg/mL (≈ 1190 µM)
